Test results from patent publication US7741493B2, “Heterocyclic compounds as P2X7 ion channel blockers” (Aventis Pharmaceuticals Inc., priority 2003, dated 2010).
Where “and” joins values, the source holds several entries; their conditions need not be identical. Identical values can stand only once. Counter-ions that a name gives are not always drawn.

Target: T1, P2X7 (Homo sapiens, UniProt Q99572)
T1 sequence (Q99572 1-595): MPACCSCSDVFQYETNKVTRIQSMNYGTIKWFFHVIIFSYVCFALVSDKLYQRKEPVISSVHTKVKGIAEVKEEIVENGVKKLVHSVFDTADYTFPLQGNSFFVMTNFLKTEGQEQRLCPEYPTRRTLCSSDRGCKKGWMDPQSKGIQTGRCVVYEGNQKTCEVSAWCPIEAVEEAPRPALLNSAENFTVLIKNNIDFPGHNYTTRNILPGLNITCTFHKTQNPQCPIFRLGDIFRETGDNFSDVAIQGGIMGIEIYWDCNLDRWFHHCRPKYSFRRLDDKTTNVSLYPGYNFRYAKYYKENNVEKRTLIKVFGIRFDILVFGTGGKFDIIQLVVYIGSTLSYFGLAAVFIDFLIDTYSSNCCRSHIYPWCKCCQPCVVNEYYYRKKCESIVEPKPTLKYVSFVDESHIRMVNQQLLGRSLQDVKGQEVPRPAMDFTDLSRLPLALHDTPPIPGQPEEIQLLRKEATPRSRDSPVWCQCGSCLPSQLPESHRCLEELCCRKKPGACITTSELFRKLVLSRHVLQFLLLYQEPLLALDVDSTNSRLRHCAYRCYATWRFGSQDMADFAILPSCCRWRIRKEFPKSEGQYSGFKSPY
Experiment: YO-PRO-1 dye uptake assay in U373 cells stably expressing P2X7
Type: cell-based
Set-up: The complete open reading frame of human P2X7 was amplified from Incyte clone 148057; expressed in transfected cells
Details: dye uptake through P2X7, U373 cells, 300 μM BzATP, 5 μM YO-PRO-1, test compounds 30 nM to 3 μM; read-out: IC50
Experimental: Following a 24-hr exposure to DNA, cells were trypsinized and re-seeded at low density in the presence of […] G418. After incubation for 2 weeks, isolated clones were selected with cloning cylinders and replated in […] G418. Cell clones were then expanded. Clones were screened for P2X7 by applying ATP and recording the resultant current using patch clamp electrophysiology.
U373 cells stably expressing P2X7 were used to screen drugs via a dye uptake assay. Cells were plated overnight on collagen coated 96-well plates at a density of 35,000 cells per well. The following day, culture media was replaced with Mg^++ and Ca^++-free Hank's balanced salt solution and various concentrations of test compounds ranging from 30 nM to 3 μM. Cells were then allowed to incubate with test compounds at 37° C. for 20 minutes. Following this incubation period YO-PRO-1 dye (Molecular Probes, Eugene, Oreg., final concentration 5 μM) and 2′-& 3′-O-(4-Benzolybenzoyl)-Adenosine 5′-triphosphate (Sigma Chemical, St Louis, Mo., final concentration 300 μM) were added to the cells sequentially. Cells were then incubated at 37° C. for 1.5 hours. […] Fluorescence in the presence of test substances was compared to that in the absence of test substances (control).

IC50 | SMILES
46 nM | Fc1ccc(CC2=N[C@H](c3ccccc3)[C@H](c3ccccc3)N2)cc1 [cis-4,5-diphenyl-2-(4-fluorobenzyl)-4,5-dihydro-1H-imidazole]
42 nM | Cc1ccccc1CCC1=N[C@H](c2ccccc2)[C@H](c2ccccc2)N1 [cis-4,5-diphenyl-2-(2-(2-methylphenyl)ethyl)-4,5-dihydro-1H-imidazole]
289 nM | Fc1ccc(CNC2=N[C@@H](c3ccccc3)[C@@H](c3ccccc3)N2)c(F)c1 [cis-4,5-diphenyl-2-(2,4-difluorobenzyl)amino-4,5-dihydro-1H-imidazole]
83 nM and 80 nM | Cc1ccc(CC2=N[C@H](c3ccccc3)[C@H](c3ccccc3)N2)cc1 [cis-4,5-diphenyl-2-(4-methylbenzyl)-4,5-dihydro-1H-imidazole]
275 nM | Cc1ccc([C@H]2NC(NCc3ccccc3)=N[C@H]2c2ccc(C)cc2)cc1 [[cis-4,5-bis-(4-Methylphenyl)-4,5-dihydro-1H-imidazol-2-yl]-benzylamine hydrochloride]
134 nM | Cc1ccc([C@H]2NC(NCc3cccc(F)c3)=N[C@H]2c2ccc(C)cc2)cc1 [[cis-4,5-bis-(4-Methylphenyl)-4,5-dihydro-1H-imidazol-2-yl]-(3-fluorobenzyl)amine hydrochloride]
300 nM | Fc1ccc(CSC2=N[C@@H](c3ccccc3)[C@@H](c3ccccc3)N2)cc1 [cis-4,5-diphenyl-2-(4-fluorobenzyl)thio-4,5-dihydro-1H-imidazole]
247 nM | Fc1ccc(CNC2=N[C@@H](c3cccc(Cl)c3)[C@@H](c3cccc(Cl)c3)N2)cc1F [[cis-4,5-bis-(3-Chlorophenyl)-4,5-dihydro-1H-imidazol-2-yl]-(3,4-difluorobenzyl)-amine hydrochloride]
400 nM | Fc1ccc(CNC2=N[C@@H](c3ccc(Cl)cc3)[C@@H](c3ccc(Cl)cc3)N2)cc1F [[cis-4,5-bis-(4-Chlorophenyl)-4,5-dihydro-1H-imidazol-2-yl]-(3,4-difluorobenzyl)-amine hydrochloride]
101 nM | COC(C1=N[C@@H](c2ccccc2)[C@@H](c2ccccc2)N1)c1ccccc1 (stereo partly drawn) [cis-4,5-diphenyl-2-(methoxy-phenyl-methyl)-4,5-dihydro-1H-imidazole]
612 nM | c1ccc(OCC2=N[C@@H](c3ccccc3)[C@@H](c3ccccc3)N2)cc1 [cis-4,5-diphenyl-2-phenoxymethyl-4,5-dihydro-1H-imidazole]
819 nM | Fc1ccccc1CSC1=N[C@@H](c2ccccc2)[C@@H](c2ccccc2)N1 [cis-4,5-diphenyl-2-(2-fluorobenzyl)thio-4,5-dihydro-1H-imidazole]
409 nM | COc1ccccc1CNC1=N[C@@H](c2ccccc2)[C@@H](c2ccccc2)N1 [cis-4,5-diphenyl-2-(2-methoxybenzyl)amino-4,5-dihydro-1H-imidazole]
386 nM | COc1cccc(CNC2=N[C@@H](c3ccccc3)[C@@H](c3ccccc3)N2)c1 [cis-4,5-diphenyl-2-(3-methoxybenzyl)amino-4,5-dihydro-1H-imidazole]

The remaining lines, values behind:

SMILES | IC50
C[C@]1(c2ccccc2)N=C(Cc2cccc(Cl)c2)N[C@H]1c1ccccc1 (relative stereo) [2-(3-Chlorobenzyl)-cis-4,5-diphenyl-4-methyl-4,5-dihydro-1H-imidazole trifluoroacetate] | 42 nM
Cc1ccccc1[C@H]1NC(NCc2ccc(F)c(F)c2)=N[C@H]1c1ccccc1C [[cis-4,5-bis-(2-Methylphenyl)-4,5-dihydro-1H-imidazol-2-yl]-(3,4-difluorobenzyl)-amine hydrochloride] | 77 nM
c1ccc([C@H]2NC(CC3Cc4ccccc4C3)=N[C@H]2c2ccccc2)cc1 [2-indan-2-ylmethyl-cis-4,5-diphenyl-4,5-dihydro-1H-imidazole trifluoroacetate] | 240 nM
Clc1ccccc1[C@H]1NC(NCc2ccccc2)=N[C@H]1c1ccccc1Cl [[cis-4,5-bis-(2-Chlorophenyl)-4,5-dihydro-1H-imidazol-2-yl]-benzylamine hydrochloride] | 925 nM
Fc1cccc([C@H]2NC(Cc3ccccc3F)=N[C@H]2c2cccc(F)c2)c1 [2-(2-Fluorobenzyl)-cis-4,5-bis-(3-fluorophenyl)-4,5-dihydro-1H-imidazole trifluoroacetate] | 449 nM
C[C@@]1(c2ccccc2)N=C(COC2CCC2)N[C@@H]1c1ccccc1 (relative stereo) [2-[(Cyclobutoxy)methyl]-cis-4,5-diphenyl-4-methyl-4,5-dihydro-1H-imidazole trifluoroacetate] | 722 nM
Cc1cccc(CCC2=N[C@@H](c3cccc(F)c3)[C@@H](c3cccc(F)c3)N2)c1 [2-[2-(3-Methylphenyl)ethyl]-cis-4,5-bis-(3-fluorophenyl)-4,5-dihydro-1H-imidazole trifluoroacetate] | 385 nM
Fc1ccc(CSC2=N[C@@H](c3ccccc3)[C@@H](c3ccccc3)N2)cc1F [2-[(3,4-Difluorobenzyl)thio]-cis-4,5-diphenyl-4,5-dihydro-1H-imidazole hydrochloride] | 461 nM
Fc1cccc(CCC2=N[C@@H](c3cccc(F)c3)[C@@H](c3cccc(F)c3)N2)c1 [2-[2-(3-Fluorophenyl)ethyl]-cis-4,5-bis-(3-fluorophenyl)-4,5-dihydro-1H-imidazole trifluoroacetate] | 79 nM
Fc1ccc(CCC2=N[C@@H](c3cccc(F)c3)[C@@H](c3cccc(F)c3)N2)cc1 [2-[2-(4-Fluorophenyl)ethyl]-cis-4,5-bis-(3-fluorophenyl)-4,5-dihydro-1H-imidazole trifluoroacetate] | 572 nM
c1ccc(SCC2=N[C@@H](c3ccccc3)[C@@H](c3ccccc3)N2)cc1 [2-[(Phenylsulfanyl)methyl]-cis-4,5-diphenyl-4,5-dihydro-1H-imidazole trifluoroacetate] | 198 nM
FC(F)(F)c1ccc(CC2=N[C@@H](c3ccccc3)[C@@H](c3ccccc3)N2)cc1 [2-(4-Trifluoromethylbenzyl)-cis-4,5-diphenyl-4,5-dihydro-1H-imidazole trifluoroacetate] | 403 nM
Clc1cccc(CCC2=N[C@H](c3ccccc3)[C@H](c3ccccc3)N2)c1 [2-[2-(3-Chlorophenyl)ethyl]-cis-4,5-diphenyl-4,5-dihydro-1H-imidazole trifluoroacetate] | 120 nM
C[C@]1(c2ccccc2)N=C(Cc2ccc(F)c(F)c2)N[C@H]1c1ccccc1 (relative stereo) [2-(3,4-Difluorobenzyl)-cis-4,5-diphenyl-4-methyl-4,5-dihydro-1H-imidazole trifluoroacetate] | 19 nM
c1ccc([C@H]2NC(NCC3CCCCC3)=N[C@H]2c2ccccc2)cc1 [(cis-4,5-Diphenyl-4,5-dihydro-1H-imidazol-2-yl)-(cyclohexylmethyl)amine hydrochloride] | 124 nM
CC(C)(CC1=N[C@@H](c2ccccc2)[C@@H](c2ccccc2)N1)c1ccccc1 | 10 nM
Fc1ccc(CNC2=N[C@@H](c3ccccc3Cl)[C@@H](c3ccccc3Cl)N2)cc1F [[cis-4,5-bis-(2-Chlorophenyl)-4,5-dihydro-1H-imidazol-2-yl]-(3,4-difluorobenzyl)-amine hydrochloride] | 378 nM
Fc1cccc(COCC2=N[C@@H](c3ccccc3)[C@@H](c3ccccc3)N2)c1 [2-[(3-Fluorobenzyloxy)methyl]-cis-4,5-diphenyl-4,5-dihydro-1H-imidazole hydrochloride] | 274 nM
Fc1cc(F)cc(CNC2=N[C@@H](c3ccccc3)[C@@H](c3ccccc3)N2)c1 [(cis-4,5-Diphenyl-4,5-dihydro-1H-imidazol-2-yl)-(3,5-difluorobenzyl)amine hydrochloride] | 102 nM
Cc1ccccc1[C@H]1NC(NCc2ccc(F)cc2)=N[C@H]1c1ccccc1C [[cis-4,5-bis-(2-Methylphenyl)-4,5-dihydro-1H-imidazol-2-yl]-(4-fluorobenzyl)amine hydrochloride] | 139 nM
CC(C1=N[C@](C)(c2ccccc2)[C@H](c2ccccc2)N1)c1ccccc1 (relative stereo) [2-(1-Phenyl-1-ethyl)-cis-4,5-diphenyl-4-methyl-4,5-dihydro-1H-imidazole trifluoroacetate] | 68 nM
C[C@]1(c2ccccc2)N=C(OCC2CCCCC2)N[C@H]1c1ccccc1 (relative stereo) [2-(Cyclohexylmethoxy)-cis-4,5-diphenyl-4-methyl-4,5-dihydro-1H-imidazole trifluoroacetate] | 275 nM
